| Structure (SMILES) | melting point [°C] |
| --- | --- |
| COc1ccc(OC)c2c(O)c(C#N)cnc12 | 300 to 305 |
| CN1CC(CCCl)Oc2ncccc2C1=S (stereo not given) | 134 to 136 |
| CCc1nn2ccc3c(c2c1C(C)C#N)CCO3 (stereo not given) | 86 to 88 |
| CCOC(=O)c1sc(Oc2ccc(NS(=O)(=O)c3ccc(C)cc3)cc2)c2c1CCc1cnn(C)c1-2 | 201 to 202 |
| O=S(CCCCCOc1ccc(C2=C(c3ccccc3)CCCc3cc(O)ccc32)cc1)Cc1ccccc1 (stereo not given) | 196 |
| OCc1ccc(-c2cccc3cncn23)cc1 | 137 to 138 |
| COc1cccc(CC(=O)O)c1OCCCc1cn(-c2ccc(C#N)cn2)nc1C(C)C | 144 to 145 |
| OC1c2ccccc2COc2ccc(-c3nnn[nH]3)cc21 (stereo not given) | 335 |
| COC(=O)c1ccc(Oc2ccc(O)cc2)cc1 | 130 to 134 |
| O=C(N[C@H]1CCOC1=O)[C@H](Cc1ccccc1)NS(=O)(=O)c1cccc2ccccc12 | 93 to 94 |
| CNc1nc(C)c(C(=O)c2ccc(Cl)c([N+](=O)[O-])c2)s1 | 220 to 232 |
| NC1(Cl)C=CN=C(Cl)N1 (stereo not given) | 55 to 56 |
| OC(c1cc(F)ccc1F)c1cc(Cl)ncc1Cl (stereo not given) | 160 to 161 |
| CC(C)C[C@H](NC(=O)[C@@H](O)[C@@H](Cc1ccc(S(C)(=O)=O)cc1)NC(=O)OCc1ccccc1)C(=O)OCc1ccccc1 | 136 to 138 |
| Nc1nc(N)nc(-c2csc(-c3ccc(C(F)(F)F)cc3)n2)n1 | > 260 |
| CC(=O)OCc1c(Br)cccc1N1CCc2c(cc3n2CCCC3)C1=O | 176 to 178 |
| COc1cccc2cc(CCl)oc12 | 44.5 to 45 |
| Cc1c(C(F)F)cc(-c2ccc(S(C)(=O)=O)cc2)n1-c1ccc(F)cc1 | 136 to 138 |
| CCC(C(C)=CC(CNC(=O)c1c[nH]cn1)=NO)[N+](=O)[O-] (stereo not given) | 157 to 158 |
| N#Cc1cc([N+](=O)[O-])ccc1N1CCN(Cc2ccccc2)CC1 | 124 |
| CC(=O)NC[C@H]1CN(c2ccc(N3CCN(CCCO)CC3)c(F)c2)C(=O)O1 | 154 to 156 |
| CCCCCCNC(=O)C(C)N1CCN(c2ccccn2)CC1 (stereo not given) | 131 to 132 |
| Oc1ccc(-c2ccc3c(Cl)c(O)ccc3n2)cc1 | 215 to 216 |
| CCc1cnc(-n2cc(CCCO)c(C(C)C)n2)nc1 | 70 to 71 |

| Structure (SMILES) | melting point [°C] |
| --- | --- |
| COc1ccc(C=C[N+](=O)[O-])cc1OC1CCCC1 | 133 to 134 |
| CC(C)(C)OC(=O)N[C@@]1(C(=O)OC(C)(C)C)C[C@@H](F)[C@H]2[C@H](C(=O)OC(C)(C)C)[C@H]21 | 140 to 143 |
| Cc1ccc(C(=O)N2CCC(CN3CCc4oc5ccccc5c4C3)CC2)cc1 | 140 |
| COC(=O)[C@@]1(C)Cc2c([nH]c3ccc(OC)cc23)[C@@H](c2cccc(O)c2)N1 (racemic) | 175 to 177 |
| CCCCCCCNC(=O)Nc1ccccc1C(=O)NCCC(c1ccccc1)c1ccccc1 | 118 |
| CN(C)C1(c2ccccc2)CCC(=CC(=O)NCCCc2ccccc2)CC1 (stereo not given) | 140 to 142 |
| CCC[C@H]1CC[C@H](CCc2cc(F)c(C#N)c(F)c2)CC1 | 27.3 |
| Cn1cc(CS(C)(=O)=O)c(=O)c2cc(F)ccc21 | 200 to 205 |
| CCCn1nc(-c2sc(C(=O)NC3CC3)nc2-c2ccccc2)ccc1=O | 146 to 147 |
| COc1ccccc1C1=CC(C)(C)Oc2ccc(C#N)cc21 | 109 to 111 |
| CN1CC(CCCCN2CCN(c3ncccn3)CC2)OC1=O (stereo not given) | 74 to 76 |
| COc1ccc(CNC(=O)c2cc(C)sc2N)cc1OC | 175 |
| CCc1cccc2c3c([nH]c12)C(CC)(CC(=O)OC)OCC3=NO (stereo not given) | 188 to 190 |
| CN(CCCNC(=O)NCCCOc1cccc(CN2CCCCC2)c1)CCC(c1ccc(F)cc1)c1ccccn1 (stereo not given) | 65 to 67 |
| Cc1c(C(=O)OCc2ccccc2)[nH]c2cc3c(sc4ccccc43)c(C)c12 | 203 to 204 |
| BrC(Br)(Br)c1nnnn1-c1ccccc1 | 141 to 142 |
| CCCCc1ccc(NC(=O)Nc2ccc(S(N)(=O)=O)cc2)cc1 | 243 to 245 |
| CCCOc1ccc(S(=O)(=O)N2CCC(C(=O)OCC)CC2)cc1-c1nc2cc(Cl)c([N+](=O)[O-])cc2c(=O)[nH]1 | 203 to 204 |
| O=C(CO)NCc1ccc2ccn(C3CCN(CCc4ccccc4F)CC3)c2c1 | 151 to 152 |
| O=C(O)c1oc(=O)c2cc(Cl)c(Cl)cc2c1-c1ccccc1 | 243 to 244 |
| Cc1cccc(C)c1NC(=O)C(C)N1CCN(CCC2CCOc3ccccc32)CC1 (stereo not given) | 130 |
| O=Cc1c(Cl)nc(-c2ccccc2)n1Cc1ccccc1 | 117 to 118 |
| O=C(Nc1ccc(-n2nc(C(F)(F)F)cc2C(F)(F)F)cc1)c1ccccc1C(F)(F)F | 133 to 135 |
| CCc1c(-c2ccc(OCc3ccccc3)cc2)c2c(C(=O)O)c(C(=O)O)c3c(OC)ccc1n32 | 198 to 200 |

Continued, values first:

| melting point [°C] | Structure (SMILES) |
| --- | --- |
| 249 | Cn1c2ncccc2c(=O)n2nccc12 |
| 104 | CCOC(=O)c1sc(C)nc1O |
| 302 to 303 | Cc1c(NC(=O)c2ccc(C(C)(C)C)cc2)nc2ccc(-n3ccnc3)nn12 |
| 128 to 129 | O=C(O)CCc1nn(-c2ccc(F)cc2)c2c1CCCC2 |
| 97 to 99 | O=C(CS(=O)(=O)c1ccccc1)NC1CCN(Cc2ccc(Cl)c(Cl)c2)CC1 |
| 98 to 101 | FC(F)(F)c1ccc(-c2ccc(Cl)nc2)cc1 |
| 151 to 153 | COC(=O)C1CCNC(=O)C1=O (stereo not given) |
| 143 | CCCCN1C(=O)NC(Cc2ccccc2)C1=O (stereo not given) |
| 147 | CCOCCNc1ncc(Cc2cc(OC)c(OC)c(OC)c2)c(N)n1 |
| 147 | O=C(NCc1ccccc1)c1ccccc1-c1ccccc1CNS(=O)(=O)c1cccc(F)c1 |
| 178 to 180 | COc1ccc(P(=O)(c2ccccc2)c2ccccc2)c(I)c1OC |
| 75 | O=S(=O)(CC(Br)(CBr)c1cccc(Cl)n1)C1CC1 (stereo not given) |
| 144 to 147 | CCCCCCCCCCCCCCCCC(=O)Nc1ccn(C2OC(CO)C(O)C2O)c(=O)n1 (stereo not given) |
| 126 to 128 | CC1(C)CC(C)(C)CC2(CCCC(=O)N2)C1 |
| 134 to 137 | O=c1n(Cc2ccc([N+](=O)[O-])cc2)c2ccccc2n1Cc1ccc(C(F)(F)F)cc1 |
| 185 to 188 | Cc1cc2cc(CN3CCCCC3)cnc2cc1NC(=O)c1ccc(-c2ccc(F)cc2)cc1 |
| 156 to 159 | COc1ccc2nc(Cl)c(Cl)nc2c1 |
| 148 to 151 | CCCNC(=S)NC1=Nc2ccc(OC(F)(F)F)cc2CS1 |
| 274 to 275 | CC(C)(C)COc1ccc(N(CC(=O)O)C(=O)c2cnn(-c3ccc(F)cc3)c2)cc1C#N |
| 78 to 79 | C(=Cc1nc2ccccc2o1)c1ccccc1 |
| 63 to 65 | CC(C)=CCCC(C)=CCCC(C)=CC=CC(C)=CC(N)=O |
| 88 to 90 | C#C[C@]1(C)CCc2c(C)c(OCc3ccccc3)c(C)c(C)c2O1 |
| > 270 | CCn1c(=O)c2[nH]c(/C=C/c3cc(OC)c4c(c3)OCO4)nc2n(CC)c1=O |
| 141 to 142 | O=c1ccc(-c2c(-c3ccccc3)nn3ccccc23)nn1CC1CCCCN1 (stereo not given) |
| 85 | CC(C)(C)OC(=O)C=Cc1ccc(NC(=O)C=C2CC(C(=O)OCc3ccccc3)Nc3cc(Cl)cc(Cl)c32)cc1 (racemic) |
| 264 to 265 | COc1cc(OC)c(-c2ccc(N(C)CCN(C)c3ccc(-c4c(OC)cc(OC)cc4OC)nc3)cn2)c(OC)c1 |

| melting point [°C] | Structure (SMILES) |
| --- | --- |
| 68 to 69 | CC(O)Cc1cnn(-c2c(Cl)cc(C(F)(F)F)cc2Cl)n1 (stereo not given) |
| 135 to 138 | CN(C=O)c1c2oc3ccccc3c2nn1C |
| 99 to 101 | CCOc1cc(CO)ncc1C |
| 160 to 163 | Cc1c(-c2ccccc2)oc2c(S(=O)(=O)CCCCl)cccc2c1=O |
| 104 to 106 | C=CC[C@@H]1CCC(=O)C[C@H]1c1ccc(OCc2ccccc2)cc1OCc1ccccc1 (relative stereo) |
| 93 to 94 | CCOC(=O)C(=O)CC(=O)CC(=O)c1ccc(Cl)cc1 |
| 71 to 73 | Cc1cccc(OC(C)(C)C(=O)O)c1C |
| 63 to 65 | CCOC(=O)CC(NC(=O)c1cccc(Cl)c1)C(=O)c1ccsc1 (stereo not given) |
| 222 to 224 | CCOC(=O)CCCOc1ccc(-c2cc(C#N)c(=O)[nH]c2C)cc1 |
| 119 to 121 | CC(=O)c1cc(-c2ccncc2)sc1Oc1cc(F)ccc1F |
| 103 to 107 | O=C(c1c[nH]c2cc(C#Cc3ccccc3)ccc12)C1CSC(c2cccnc2)N1 (stereo not given) |
| 90 | O=C(O)Cc1ccc(CNC(=O)C2Cc3ccccc3N2S(=O)(=O)c2ccc(-c3cccc(C(F)(F)F)c3)cc2)cc1 (stereo not given) |
| 109 to 110 | Fc1ccc(-c2cc(N3CCN(CC4CC4)CC3)nc3c2CCCCCC3)cc1 |
| 200 to 204 | COc1c(N2CCC(C(O)CO)CC2)c(F)cc2c(=O)c(C(=O)O)cn(C3CC3)c12 (stereo not given) |
| > 350 | O=c1cc2c3cccnc3sn2c2ccccc12 |
| 102 to 103 | COCC1OC(OC(C)=O)C(OC(C)=O)C(OC(C)=O)C1OC(C)=O (stereo not given) |
| 159 | COC(=O)COc1ncccc1Oc1cc(NC(=O)CC(=O)C(F)(F)F)c(F)cc1Cl |
| > 230 | CSc1nn2c(N)cc(C)nc2c1S(=O)(=O)c1ccc(Cl)cc1 |
| 90 to 91 | COc1ccccc1S(=O)(=O)OC(Br)C(=O)c1ccccc1 (stereo not given) |
| 68 to 69 | COC(=O)C(=O)c1ccc(OCCOc2cccc(F)c2)cc1 |
| 267 to 269 | NS(=O)(=O)c1ccc(CNC(=O)c2ccccc2SSc2ccccc2C(=O)NCc2ccc(S(N)(=O)=O)cc2)cc1 |
| 168 to 170 | CN(C(=O)Nc1cccnc1)c1ccc2c(ccn2C)c1 |
| 168 to 170 | CCSc1nc2c(N)nc(-c3ccncc3)nc2[nH]1 |
| 87 to 89 | CCOCc1cc(OC)c(-c2ccc(C[C@H](NC(=O)c3c(F)cccc3F)C(=O)OCC)cc2)c(OC)c1 |
| 62 to 66 | C=CCOc1cc(F)nc(N)n1 |
| > 270 | CN1CCC(C2=C(C#N)C(c3ccccc3Cl)c3c[nH]nc3N2)CC1 (stereo not given) |
